The target of the assay is T1, NOD1 (Homo sapiens, UniProt Q9Y239).
T1 construct: expressed in transfected cells; host or cells: HEK293T
T1 sequence (Q9Y239 1-953): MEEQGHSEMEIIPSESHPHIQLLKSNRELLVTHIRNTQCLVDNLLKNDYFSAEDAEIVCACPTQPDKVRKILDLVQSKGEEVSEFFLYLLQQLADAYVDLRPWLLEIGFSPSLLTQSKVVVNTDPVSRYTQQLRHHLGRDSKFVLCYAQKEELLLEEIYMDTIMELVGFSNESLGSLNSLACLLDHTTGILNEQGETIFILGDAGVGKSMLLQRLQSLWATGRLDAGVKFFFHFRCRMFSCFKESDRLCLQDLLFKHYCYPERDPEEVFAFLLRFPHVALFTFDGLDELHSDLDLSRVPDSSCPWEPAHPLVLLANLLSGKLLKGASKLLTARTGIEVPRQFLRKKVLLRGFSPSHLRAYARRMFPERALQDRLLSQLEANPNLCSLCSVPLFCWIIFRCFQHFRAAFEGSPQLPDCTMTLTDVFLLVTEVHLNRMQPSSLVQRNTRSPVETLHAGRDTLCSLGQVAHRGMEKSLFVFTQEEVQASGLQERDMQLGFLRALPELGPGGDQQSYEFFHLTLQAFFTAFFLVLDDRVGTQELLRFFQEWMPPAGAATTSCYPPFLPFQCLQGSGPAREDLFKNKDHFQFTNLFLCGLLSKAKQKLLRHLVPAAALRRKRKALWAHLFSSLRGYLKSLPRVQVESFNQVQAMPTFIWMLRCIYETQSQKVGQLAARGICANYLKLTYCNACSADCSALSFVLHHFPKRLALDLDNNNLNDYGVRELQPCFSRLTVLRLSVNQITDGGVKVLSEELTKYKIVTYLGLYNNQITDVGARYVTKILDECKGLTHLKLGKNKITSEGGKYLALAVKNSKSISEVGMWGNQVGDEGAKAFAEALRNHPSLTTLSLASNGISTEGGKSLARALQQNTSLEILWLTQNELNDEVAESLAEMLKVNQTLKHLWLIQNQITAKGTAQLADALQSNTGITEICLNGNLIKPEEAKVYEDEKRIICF
Kind of assay: NF-κB-dependent luciferase reporter assay, HEK293T cells expressing NOD1. Type of assay: cell-based. From the text:
Reagents. LPS from S. typhimurium, intact and alkaline-detoxified LPS from E. coli O55:B5 as well as purified lipid A preparations of E. coli F583, MDP, DAP and dsRNA were obtained from Sigma-Aldrich (St. Louis, Mo.). PGN from S. aureus was from Fluka-Chemie (Buchs, Germany). Palmitoyl-Cys ((RS)-2,3-di(palmitoyloxy)-propyl)-Ala-Gly) (sBLP), was obtained from Bachem (Torrance, Calif.). The tetrameric form of the disaccharide dipeptide was described previously (Inohara et al., J. Biol. Chem. 278:5509 [2003]). iE-DAP and iQ-DAP, M3P and M4P were synthesized as described (Kitaura et al., J. Med. Chem. 25:335 [1982]) with small modification. Purification of PGN from B. subtilis 168 and C. flaccumfaciens with hydrolases, Cellosyl or recombinant AtlE (amidase domain) and the fractionation and purification of reduced B. subtilis PGN digested with Cellosyl were performed as previously described (Heilman et al., Mol. Microbiol. 24:1013 [1997]; Atrih et al., J. Bact. 181:3956 [1999]). Removal of proteins and reduction of LPS fraction. E. coli O55:B5 LPS (Sigma) was treated with proteinase K at 37° C. for 12 hr to digest contaminating proteins. To eliminate lipoproteins, LPS was subjected to modified phenol extraction with deoxycholate-containing phenol as described (Hirschfeld et al., J. Immunol. 165:618 [2000]). For reduction of carboxyl group in the LPS, the LPS was treated with 1-ethyl-3-(3-dimethylaminopropyl) carbodiimide and then reduced with NaBH4 as described (Taylor et al., Biochemistry 11:1383 [1972]). Preparation of E. coli extract. E. coli K-12 mutants were all based on the SØ864 genetic background (lacZ trp upp relA rpsL) (Neuhard and Thomassen, J. Bacteriol. 126:999). SØ874 carries a large chromosomal deletion removing the gene clusters for the biosynthesis of CA capsule and O-antigen. CLM5 is a derivative of SØ874 with a transposon insertion in the wecC gene that blocks the synthesis of ECA (Marolda et al., J. Bacteriol. 177:5539[1995]). FAM5 is a derivative of SØ874 carrying a deletion that eliminates the incorporation of heptose in the LPS core. Extracts were prepared from all of these E. coli K-12 strains and also from another E. coli K-12 strain, LCD27 YA21-6 (Obtained from Dr. Arisaka, Tokyo Institute of Technology). Bacteria were cultured overnight at 37° C. in Luria broth, killed by treatment with acetone followed by vacuum drying and finally resuspended in 10 mM HEPES. The extract was treated with 1M NaOH at 55° C. for 12 hr and neutralized with 1M HEPES (pH 7.4). The soluble fraction after centrifugation and filtration with 0.22 μm filter was applied to SUPEROSE 12 gel filtration column chromatography. Partial purification of NOD1-stimulatory molecules from E. coli and composition analyses. The amino acid composition of E. coli O55:B5 LPS was determined using AccQ·Tag amino acid analysis system (Waters, Milford, Mass.) after hydrolysis at 110° C. for 24 hr. For carbohydrate analysis, E coli K-12 YA21-6 (Ref 26) cultured overnight at 37° C. in L-broth were washed with TBS twice and incubated with TBS containing 1 mglml DNase I, RNase I and lysozyme for 37° C. for 2 hr. Acetone was added to the extracts at 50% final concentration and the insoluble fractions were washed with an excess of 75% and 100% acetone. After vacuum drying, the acetone extract was solublized with 1 M NaOH and incubated at 60° C. for 24 hr. The pH was adjusted to pH 5.0 with acetic acid and the soluble fraction was passed through SUPEROSE gel filtration column. SUPEROSE fractions with NOD1-stimulatory activity were diluted with 10 mM Tris-HCl (pH 8.8) and subjected to UnoQ column chromatography. The fractions were eluted with a linear gradient of 0–300 mM NaCl. The positive fractions were dialyzed against water and dried under vacuum. The monosaccharide composition of the fractions after TFA/methanol degradation was determined as previously described (Forsberg et al., J. Biol. Chem. 273:2747[1998]). Transfection and NF-κB Activation Assay. […]
As for “γ-D-glutamy-meso-diaminopimelic acid [iE-DAP]”, the “NOD1-dependent NF-κB activation (NOD1 stimulation)” value (“NOD1-dependent NF-κB activation” below) was “stimulated NOD1”.

As for MurNAc-L-Ala-γ-D-Gln [MDP], the “NOD1-dependent NF-κB activation” value was “Neither MDP nor tetrameric forms of disaccharide dipeptide (4 mer) stimulated NOD1”.

γ-D-Gln-DAP [iQ-DAP]: the “NOD1-dependent NF-κB activation” value was “stimulated NOD1”.

“Palmitoyl-Cys ((RS)-2,3-di(palmitoyloxy)-propyl)-Ala-Gly) [synthetic lipoprotein]”: the “NOD1-dependent NF-κB activation” value was “not NOD1”.

(Values after patent publication US7244557B2, “Method of screening modulators of Nod1 signaling” (Regents of the University of Michigan, priority 2003, dated 2007).)
